{"source": "patent US8568968B2", "about": "“EGFR polymorphisms predict gender-related treatment” (University of Southern California, priority 2009, dated 2013)", "tested_on": "metastatic colon cancer patients", "assay": "Overall survival of metastatic colon cancer patients treated with 5-FU-based chemotherapy, by gender and EGFR genotype", "type": "in vivo, human", "conditions": "for RR (95% CI): relative risk", "source_text": "A total of 318 patients with metastatic colon cancer treated at the University of Southern California/Norris Comprehensive Cancer Center (USC/NCCC) or the Los Angeles County/University of Southern California Medical Center (LAC/USCMC), between 1992 and 2003, were eligible for the present study. This population included only metastatic or recurrent colon cancer patients. All patients in this study signed informed consents and enrolled in protocols designed to study the molecular determinants of colon cancer. These protocols permitted blood collection (USC protocol OS-99-10) and/or tissue collection (USC protocol 0S-00-15).\nAll patients were entered and followed in an institutional database. Patient information was collected through database review and retrospective chart review when additional patient information was necessary. A large number of the patients (69%) were initially treated at an outside institution until, because of failure to respond to prior treatment, they were referred to USC/NCCC or LAC/USCMC for subsequent treatments. The end point of this study, OS, was determined by calculating the difference between the date of first treatment at USC/NCCC or LAC/USC and the date of last follow-up appointment or date of death from disease.\nAll 318 patients were enrolled in at least one chemotherapy clinical trial while being treated at this institution (USC/NCCC or LAC/USCMC). All patients were treated with 5-fluorouracil (5-FU)-based chemotherapy regimens, and response to chemotherapy was not investigated as an end point for this study. This is a heavily pretreated cohort with 20 (6%) patients treated with one line of chemotherapy, 19 (6%) patients treated with two different chemotherapy regimens, 183 (58%) patients treated with three chemotherapy regimens, and 96 (30%) patients treated with four or more chemotherapy regimens. […] All 318 patients received treatment with 5-FU, 298 (94%) patients received treatment with 5-FU/irinotecan (CPT-11), and 279 (88%) patients received treatment with 5-FU/oxaliplatin.\nThe primary end point of this study is OS. The OS was determined by calculating the difference between the date of first treatment at USC/NCCC or LAC/USC and the date of last follow-up appointment or date of death. Patients who were alive at the last follow-up were censored at that time.\nThe associations between sex and other demographic and clinical characteristics were examined using contingency tables and the Fisher exact test. The dominant code for HER-1 R497K was used for the association with OS, and patients who carried heterozygous (Arg/Lys) and homozygous mutant genotypes (Lys/Lys) were grouped together. EGFR intron 1 (CA)n repeat polymorphism was categorized into two groups: both alleles with <20 (CA)n (SEQ ID NO: 3) and any alleles with ≧20 (CA)n (SEQ ID NO: 4) as described previously (19). The associations of HER-1 R497K and EGFR intron 1 (CA)n repeat polymorphisms with OS were analyzed individually using Kaplan-Meier plots and the log-rank test. The independent effects of two EGFR polymorphisms on OS were examined in multivariable analysis using Cox proportional hazards model. Interactions between sex and EGFR polymorphisms were examined using stratified models and were tested by comparing corresponding likelihood ratio statistics between the baseline and nested Cox proportional hazards models that included the multiplicative product terms (20).", "note": "Several values for one entry are separate records, joined by “and”; a condition that tells them apart may be missing. Identical values can stand only once.", "data": [{"compound": "O=c1[nH]cc(F)c(=O)[nH]1", "note": "[5-FU, 5-fluorouracil]", "values": [{"measurement": "Median survival (95% CI)", "setting": "female, EGFR intron 1 any (CA)n repeats ≧20", "result": "14.1 mo and 14.1 (12.1-18.3) mo"}, {"measurement": "Median survival (95% CI)", "setting": "female, EGFR intron 1 both (CA)n repeats <20", "result": "17.6 mo and 17.9 mo and 17.6 (13.7-22.7) mo"}, {"measurement": "Median survival (95% CI)", "setting": "female, HER-1 R497K Arg/Arg, 5-FU-based chemotherapy regimens", "result": "16.0 (13.5-19.2) mo"}, {"measurement": "Median survival (95% CI)", "setting": "female, HER-1 R497K Lys allele (Arg/Lys or Lys/Lys)", "result": "14.0 (11.2-17.9) mo"}, {"measurement": "Median survival (95% CI)", "setting": "female, combined: Arg/Arg and (CA)n <20", "result": "15.7 (11.5-41.4) mo"}, {"measurement": "Median survival (95% CI)", "setting": "female, combined: Arg/Arg and (CA)n ≧20 or Lys and (CA)n <20", "result": "17.3 (14.0-19.2) mo"}, {"measurement": "Median survival (95% CI)", "setting": "female, combined: Lys and (CA)n ≧20", "result": "12.2 (7.7-16.7) mo"}, {"measurement": "RR (95% CI)", "setting": "female, Arg/Arg and (CA)n ≧20 or Lys and (CA)n <20 vs Arg/Arg and (CA)n <20 (reference)", "result": "0.93 (0.56-1.54)"}, {"measurement": "RR (95% CI)", "setting": "female, Lys allele vs Arg/Arg (reference), Cox model", "result": "1.41 (0.94-2.10)"}, {"measurement": "RR (95% CI)", "setting": "female, Lys and (CA)n ≧20 vs Arg/Arg and (CA)n <20 (reference)", "result": "1.90 (1.10-3.29)"}, {"measurement": "RR (95% CI)", "setting": "female, any (CA)n ≧20 vs both <20 (reference)", "result": "1.37 (0.93-2.01)"}, {"measurement": "Median survival (95% CI)", "setting": "male, EGFR intron 1 any (CA)n repeats ≧20", "result": "13.1 mo and 13.1 (10.7-16.0) mo"}, {"measurement": "Median survival (95% CI)", "setting": "male, EGFR intron 1 both (CA)n repeats <20", "result": "10.3 mo and 10.4 mo and 10.3 (8.3-15.5) mo"}, {"measurement": "Median survival (95% CI)", "setting": "male, HER-1 R497K Arg/Arg, 5-FU-based chemotherapy regimens", "result": "10.3 (9.0-13.5) mo"}, {"measurement": "Median survival (95% CI)", "setting": "male, HER-1 R497K Lys allele (Arg/Lys or Lys/Lys)", "result": "13.7 (10.8-19.1) mo"}, {"measurement": "Median survival (95% CI)", "setting": "male, combined: Arg/Arg and (CA)n <20", "result": "8.9 (7.3-11.4) mo"}, {"measurement": "Median survival (95% CI)", "setting": "male, combined: Arg/Arg and (CA)n ≧20 or Lys and (CA)n <20", "result": "13.1 (10.3-17.5) mo"}, {"measurement": "Median survival (95% CI)", "setting": "male, combined: Lys and (CA)n ≧20", "result": "13.6 (10.7-19.5) mo"}, {"measurement": "RR (95% CI)", "setting": "male, Arg/Arg and (CA)n ≧20 or Lys and (CA)n <20 vs Arg/Arg and (CA)n <20 (reference)", "result": "0.84 (0.57-1.25)"}, {"measurement": "RR (95% CI)", "setting": "male, Lys allele vs Arg/Arg (reference), Cox model", "result": "0.64 (0.46-0.89)"}, {"measurement": "RR (95% CI)", "setting": "male, Lys and (CA)n ≧20 vs Arg/Arg and (CA)n <20 (reference)", "result": "0.62 (0.39-0.97)"}, {"measurement": "RR (95% CI)", "setting": "male, any (CA)n ≧20 vs both <20 (reference)", "result": "0.92 (0.67-1.28)"}]}]}
